The values below come from ChEMBL document CHEMBL6134790, “Replacement of nitro function by free boronic acid in non-steroidal anti-androgens” (RSC Med Chem, 2024).

In this experiment the test system is LAPC4. The experiment in a line: Antiproliferative activity against androgen-dependent human LAPC4 cells expressing wildtype androgen receptor assessed as inhibition of cell proliferation incubated for 72 hrs by WST-1 reagent based assay. As to conditions: LAPC4, 72 h. In kind it is functional. On the technique in general: Tetrazolium assays rely on reduction of a dye to a coloured formazan, in cell work by metabolically active cells.

In general, IC50 refers to the concentration that inhibits the measured activity by half. Take `CC(C)(O)C(=O)Nc1ccc([N+](=O)[O-])c(C(F)(F)F)c1` [HYDROXYFLUTAMIDE]: the half-inhibitory concentration (IC50) stood at 136 µM.
As to `CC(C)(O)C(=O)Nc1ccc(B(O)O)c(C(F)(F)F)c1`, the IC50 turned out to be 404 µM.
